Test results from ChEMBL document CHEMBL1201862, “PubChem BioAssay data set” (2004).
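Assay format: 96-well plates, 48-hour exposure. At the GI50, growth is halved.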 Active and inactive are the calls of the source. Rule as the data show it: active = GI50 up to about 1.1 µM and inactive = higher.

Key:
Experiment in all cases: growth of human tumour cells (NCI), 48 h
EKVX = tested on: EKVX
HCC 2998 = tested on: HCC 2998
HCT-116 = tested on: HCT-116
HCT-15 = tested on: HCT-15
HL-60 = tested on: HL-60
Hs-578T = tested on: Hs-578T
MCF7 = tested on: MCF7
MDA-N = tested on: MDA-N
MOLT-4 = tested on: MOLT-4
NCI-H226 = tested on: NCI-H226
NCI-H23 = tested on: NCI-H23
NCI-H460 = tested on: NCI-H460
SF-539 = tested on: SF-539
SN12C = tested on: SN12C
Malme-3M = tested on: Malme-3M
NCI-H522 = tested on: NCI-H522
OVCAR-8 = tested on: OVCAR-8
UACC-257 = tested on: UACC-257
OVCAR-3 = tested on: OVCAR-3
SF-295 = tested on: SF-295

CC(C)SC(C)(NC(=O)C1C(C)(C)CCC1(C)C)C(=O)O (configuration not stated)
GI50 (EKVX): > 100 µM (inactive)
GI50 (HCC 2998): > 100 µM (inactive)
GI50 (HCT-116): > 100 µM (inactive)
GI50 (HCT-15): > 100 µM
GI50 (HL-60): > 100 µM (inactive)
GI50 (Hs-578T): > 100 µM (inactive)
GI50 (MCF7): > 100 µM (inactive)
GI50 (MDA-N): > 100 µM (inactive)
GI50 (MOLT-4): > 100 µM (inactive)
GI50 (NCI-H226): > 100 µM (inactive)
GI50 (NCI-H23): > 100 µM (inactive)
GI50 (NCI-H460): > 100 µM (inactive)
GI50 (SF-539): > 100 µM (inactive)
GI50 (SN12C): > 100 µM (inactive)

Nc1ccc2nc(-c3cccc(Cl)c3)cc(O)c2c1
GI50 (EKVX): 42.6 µM (inactive)
GI50 (HCC 2998): 6.73 µM (inactive)
GI50 (HCT-15): 3.19 µM
GI50 (Hs-578T): 6.79 µM (inactive)
GI50 (MCF7): 3.46 µM (inactive)
GI50 (MOLT-4): 3.55 µM (inactive)
GI50 (Malme-3M): 3.26 µM (inactive)
GI50 (NCI-H23): 5.79 µM (inactive)
GI50 (NCI-H460): 4.39 µM (inactive)
GI50 (NCI-H522): 2.34 µM (inactive)
GI50 (OVCAR-8): 18 µM (inactive)
GI50 (SF-539): 2.11 µM (inactive)
GI50 (SN12C): 8.38 µM (inactive)
GI50 (UACC-257): > 100 µM (inactive)

COc1cc(/C=C2\N=C(c3ccccc3)N(c3ccc(C(=O)c4ccccc4)cc3N3C(=O)/C(=C/c4ccc(O)c(OC)c4)N=C3c3ccccc3)C2=O)ccc1O
GI50 (EKVX): 25.9 µM (inactive)
GI50 (HCC 2998): 2.91 µM (inactive)
GI50 (HCT-116): 5.62 µM (inactive)
GI50 (HCT-15): 5.28 µM
GI50 (HL-60): 5.09 µM (inactive)
GI50 (Hs-578T): 10.1 µM (inactive)
GI50 (MCF7): 5.85 µM (inactive)
GI50 (MDA-N): 3.75 µM (inactive)
GI50 (MOLT-4): 3.3 µM (inactive)
GI50 (NCI-H460): 4.66 µM (inactive)
GI50 (OVCAR-3): 3.52 µM (inactive)
GI50 (OVCAR-8): 12.7 µM (inactive)
GI50 (SF-295): 6.43 µM (inactive)
GI50 (SF-539): 5.15 µM (inactive)
GI50 (SN12C): 17.9 µM (inactive)
GI50 (UACC-257): 16.8 µM (inactive)

CCC(=O)O[C@H]1CC[C@H]2[C@@H]3CCC4=C/C(=N/NC(=O)c5cccc6c(=O)c7ccccc7[nH]c56)CC[C@]4(C)[C@H]3CC[C@]12C
GI50 (EKVX): > 25 µM (inactive)
GI50 (HCC 2998): > 25 µM (inactive)
GI50 (HCT-15): > 25 µM
GI50 (Hs-578T): > 25 µM (inactive)
GI50 (MCF7): > 25 µM (inactive)
GI50 (MDA-N): > 25 µM (inactive)
GI50 (MOLT-4): > 25 µM (inactive)
GI50 (NCI-H226): > 25 µM (inactive)
GI50 (NCI-H23): > 25 µM (inactive)
GI50 (NCI-H460): > 25 µM (inactive)
GI50 (NCI-H522): > 25 µM (inactive)
GI50 (OVCAR-3): > 25 µM (inactive)
GI50 (OVCAR-8): > 25 µM (inactive)
GI50 (SF-295): > 25 µM (inactive)
GI50 (SF-539): > 25 µM (inactive)
GI50 (SN12C): > 25 µM (inactive)
GI50 (UACC-257): > 25 µM (inactive)

CC(=O)O[C@@H]1C=C(C)[C@H](CBr)O[C@@]2(C)CC[C@H](Br)C(C)(C)[C@H]12
GI50 (EKVX): > 100 µM (inactive)
GI50 (HCC 2998): > 100 µM (inactive)
GI50 (HCT-116): > 100 µM (inactive)
GI50 (HCT-15): > 100 µM
GI50 (HL-60): 91.2 µM (inactive)
GI50 (Hs-578T): > 100 µM (inactive)
GI50 (MCF7): > 100 µM (inactive)
GI50 (MDA-N): > 100 µM (inactive)
GI50 (MOLT-4): 77.6 µM (inactive)
GI50 (NCI-H226): > 100 µM (inactive)
GI50 (NCI-H23): > 100 µM (inactive)
GI50 (NCI-H460): > 100 µM (inactive)
GI50 (NCI-H522): 38.2 µM (inactive)
GI50 (OVCAR-8): > 100 µM (inactive)
GI50 (SF-295): > 100 µM (inactive)
GI50 (SF-539): > 100 µM (inactive)
GI50 (SN12C): > 100 µM (inactive)
GI50 (UACC-257): > 100 µM (inactive)

CCCC(=O)n1[nH]c(=O)n(C(C)(C)C)c1=O
GI50 (EKVX): > 100 µM (inactive)
GI50 (HCC 2998): > 100 µM (inactive)
GI50 (HCT-116): > 100 µM (inactive)
GI50 (HCT-15): > 100 µM
GI50 (HL-60): > 100 µM (inactive)
GI50 (Hs-578T): > 100 µM (inactive)
GI50 (MCF7): > 100 µM (inactive)
GI50 (MDA-N): > 100 µM (inactive)
GI50 (MOLT-4): > 100 µM (inactive)
GI50 (Malme-3M): 44.1 µM (inactive)
GI50 (NCI-H226): > 100 µM (inactive)
GI50 (NCI-H23): > 100 µM (inactive)
GI50 (NCI-H460): > 100 µM (inactive)
GI50 (OVCAR-3): > 100 µM (inactive)
GI50 (OVCAR-8): > 100 µM (inactive)
GI50 (SF-295): > 100 µM (inactive)
GI50 (SN12C): > 100 µM (inactive)
GI50 (UACC-257): > 100 µM (inactive)

O=C(/C=C/c1ccccc1)c1cc(C(=O)/C=C/c2ccccc2)c(O)cc1O
GI50 (EKVX): 18.7 µM (inactive)
GI50 (HCC 2998): 88.3 µM (inactive)
GI50 (HCT-116): 60.1 µM (inactive)
GI50 (HCT-15): > 100 µM
GI50 (HL-60): > 100 µM (inactive)
GI50 (Hs-578T): 26.4 µM (inactive)
GI50 (MCF7): 51.4 µM (inactive)
GI50 (MDA-N): > 100 µM (inactive)
GI50 (MOLT-4): > 100 µM (inactive)
GI50 (Malme-3M): > 100 µM (inactive)
GI50 (NCI-H23): > 100 µM (inactive)
GI50 (NCI-H460): > 100 µM (inactive)
GI50 (OVCAR-8): > 100 µM (inactive)
GI50 (SF-539): 47.3 µM (inactive)
GI50 (SN12C): > 100 µM (inactive)
GI50 (UACC-257): > 100 µM (inactive)

Cc1cn(CCOCCOC(=O)NC(CCCNC(=N)N)C(=O)O)c(=O)[nH]c1=O (configuration not stated)
GI50 (EKVX): > 100 µM (inactive)
GI50 (HCC 2998): > 100 µM (inactive)
GI50 (HCT-116): > 100 µM (inactive)
GI50 (HCT-15): > 100 µM
GI50 (HL-60): > 100 µM (inactive)
GI50 (Hs-578T): > 100 µM (inactive)
GI50 (MCF7): > 100 µM (inactive)
GI50 (MDA-N): > 100 µM (inactive)
GI50 (MOLT-4): > 100 µM (inactive)
GI50 (NCI-H226): > 100 µM (inactive)
GI50 (NCI-H23): > 100 µM (inactive)
GI50 (NCI-H460): > 100 µM (inactive)
GI50 (OVCAR-3): > 100 µM (inactive)
GI50 (SF-295): > 100 µM (inactive)
GI50 (SF-539): > 100 µM (inactive)
GI50 (SN12C): > 100 µM (inactive)
GI50 (UACC-257): > 100 µM (inactive)

COc1ccc(C(C)c2cc3c(cc2O)OCO3)cc1 (configuration not stated)
GI50 (EKVX): 20.3 µM (inactive)
GI50 (HCC 2998): 7.01 µM (inactive)
GI50 (HCT-116): 15.9 µM (inactive)
GI50 (HCT-15): 7.33 µM
GI50 (HL-60): 13.2 µM (inactive)
GI50 (Hs-578T): 20.5 µM (inactive)
GI50 (MCF7): 15.1 µM (inactive)
GI50 (MOLT-4): 9.02 µM (inactive)
GI50 (NCI-H226): 19.7 µM (inactive)
GI50 (NCI-H23): 16.2 µM (inactive)
GI50 (NCI-H460): 14.7 µM (inactive)
GI50 (NCI-H522): 11.4 µM (inactive)
GI50 (OVCAR-3): 13.9 µM (inactive)
GI50 (OVCAR-8): 16.7 µM (inactive)
GI50 (SF-295): 14.3 µM (inactive)
GI50 (SF-539): 16.9 µM (inactive)
GI50 (SN12C): 18.6 µM (inactive)
GI50 (UACC-257): 15.6 µM (inactive)

CC(=O)O[C@H]1/C(=C/c2ccncc2)C[C@H]2[C@@H]3CC=C4C[C@@H](N5CCCC5)CC[C@]4(C)[C@H]3CC[C@]12C
GI50 (EKVX): 13.9 µM (inactive)
GI50 (HCC 2998): 12.2 µM (inactive)
GI50 (HCT-116): 3.41 µM (inactive)
GI50 (HCT-15): 10.1 µM
GI50 (HL-60): 8.38 µM (inactive)
GI50 (Hs-578T): 16.6 µM (inactive)
GI50 (MCF7): 12.1 µM (inactive)
GI50 (MOLT-4): 11.5 µM (inactive)
GI50 (Malme-3M): 13 µM (inactive)
GI50 (NCI-H226): 19.3 µM (inactive)
GI50 (NCI-H23): 15.1 µM (inactive)
GI50 (NCI-H460): 10.8 µM (inactive)
GI50 (NCI-H522): 15.2 µM (inactive)
GI50 (OVCAR-3): 21.8 µM (inactive)
GI50 (OVCAR-8): 14 µM (inactive)
GI50 (SF-295): 14.5 µM (inactive)
GI50 (SF-539): 18.6 µM (inactive)
GI50 (SN12C): 17 µM (inactive)
GI50 (UACC-257): 2.34 µM (inactive)

CSC1=NC(C(N)=O)C(N)N1C (configuration not stated)
GI50 (EKVX): > 100 µM (inactive)
GI50 (HCT-116): > 100 µM (inactive)
GI50 (HCT-15): > 100 µM
GI50 (HL-60): > 100 µM (inactive)
GI50 (Hs-578T): > 100 µM (inactive)
GI50 (MDA-N): > 100 µM (inactive)
GI50 (MOLT-4): > 100 µM (inactive)
GI50 (Malme-3M): > 100 µM (inactive)
GI50 (NCI-H226): > 100 µM (inactive)
GI50 (NCI-H23): > 100 µM (inactive)
GI50 (NCI-H460): > 100 µM (inactive)
GI50 (NCI-H522): > 100 µM (inactive)
GI50 (OVCAR-3): > 100 µM (inactive)
GI50 (OVCAR-8): > 100 µM (inactive)
GI50 (SF-295): > 100 µM (inactive)
GI50 (SF-539): > 100 µM (inactive)
GI50 (SN12C): > 100 µM (inactive)
GI50 (UACC-257): > 100 µM (inactive)

NS(=O)(=O)c1cc(S(N)(=O)=O)c(NC(=O)Nc2ccc(Cl)c(Cl)c2)c(Cl)c1Cl
GI50 (EKVX): > 100 µM (inactive)
GI50 (HCC 2998): > 100 µM (inactive)
GI50 (HCT-116): > 100 µM (inactive)
GI50 (HCT-15): > 100 µM
GI50 (Hs-578T): > 100 µM (inactive)
GI50 (MCF7): > 100 µM (inactive)
GI50 (MDA-N): > 100 µM (inactive)
GI50 (MOLT-4): > 100 µM (inactive)
GI50 (NCI-H226): 96.2 µM (inactive)
GI50 (NCI-H23): > 100 µM (inactive)
GI50 (NCI-H460): > 100 µM (inactive)
GI50 (NCI-H522): > 100 µM (inactive)
GI50 (OVCAR-3): > 100 µM (inactive)
GI50 (OVCAR-8): > 100 µM (inactive)
GI50 (SF-295): > 100 µM (inactive)
GI50 (SN12C): > 100 µM (inactive)
GI50 (UACC-257): > 100 µM (inactive)
